Test results taken from patent US20100062052A1, “PEPTIDE-BASED COMPOUNDS AS NEW INHIBITORS OF METALLOECTOPEPTIDASES, COMPOSITIONS COMPRISING SAID COMPOUNDS AND THEIR PHARMACEUTICAL AND COSMETIC USES” (GREENPHARMA, priority 2007, published 2010).
Residues, ends and D or L forms follow the SMILES beside them. *: point of attachment. Palmitoyl = CCCCCCCCCCCCCCCC(=O)*

Test: Solubility in aqueous Tris-buffer
Assay type: physicochemical
Conditions: diluted from ethanol stock, read-out: solubility limit in aqueous Tris-buffer conditions

solubility: ≤ 70 µM
SMILES: CCCCCCCCCCCCCCCC(=O)N[C@@H](CCC(N)=O)C(=O)N[C@@H](CCCNC(=N)N)C(=O)N[C@@H](Cc1ccccc1)C(=O)N[C@@H](CO)C(=O)N[C@@H](CCCNC(=N)N)C(N)=O [Pal-QRFSR-NH2, palmitoyl-QRFSR-NH2] (Palmitoyl-QRFSR-NH2)
